Results on 8 molecules are retold here after ChEMBL document CHEMBL4052778, “Bioactive polyprenylated benzophenone derivatives from the fruits extracts of Garcinia xanthochymus” (Bioorg Med Chem Lett, 2017).

In general, IC50 refers to the concentration needed to halve the response being measured.

Calls of active or inactive are those of the source. The calls are words filed in the database; no cut-off is given here.

The first assay deals with Signal transducer and activator of transcription 3 (Homo sapiens) (UniProt P40763). Briefly: Inhibition of STAT3 DNA binding activity in human U251MG nuclear extract at 5 uM preincubated for 30 mins followed by addition of [32P]hSIE measured up to 24 hrs by electrophoretic mobility shift assay.
Sequence of Signal transducer and activator of transcription 3 (Homo sapiens) (P40763 whole entry): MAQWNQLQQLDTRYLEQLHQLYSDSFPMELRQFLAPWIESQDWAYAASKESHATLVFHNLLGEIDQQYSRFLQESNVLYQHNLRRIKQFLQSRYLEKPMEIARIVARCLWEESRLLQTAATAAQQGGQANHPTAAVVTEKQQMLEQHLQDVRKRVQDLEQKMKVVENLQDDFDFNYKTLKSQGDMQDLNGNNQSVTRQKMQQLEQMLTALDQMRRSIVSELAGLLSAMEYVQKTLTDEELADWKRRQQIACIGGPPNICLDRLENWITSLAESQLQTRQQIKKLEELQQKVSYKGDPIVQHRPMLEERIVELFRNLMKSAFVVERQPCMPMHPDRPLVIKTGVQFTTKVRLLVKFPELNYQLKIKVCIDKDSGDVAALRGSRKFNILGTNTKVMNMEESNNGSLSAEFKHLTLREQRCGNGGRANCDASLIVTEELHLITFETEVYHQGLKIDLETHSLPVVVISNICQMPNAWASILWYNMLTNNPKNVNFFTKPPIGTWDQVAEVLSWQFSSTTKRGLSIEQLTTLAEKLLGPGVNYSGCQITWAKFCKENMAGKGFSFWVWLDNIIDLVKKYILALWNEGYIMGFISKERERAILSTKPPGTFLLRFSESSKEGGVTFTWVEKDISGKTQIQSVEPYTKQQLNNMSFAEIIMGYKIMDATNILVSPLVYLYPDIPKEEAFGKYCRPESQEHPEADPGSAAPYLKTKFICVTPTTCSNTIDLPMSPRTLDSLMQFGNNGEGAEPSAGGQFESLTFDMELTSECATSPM
Conditions: not given
Background: A gel shift assay detects complexes by their altered migration in electrophoresis.
With `C=C(C)[C@H]1C[C@@]23C[C@@H](CC=C(C)C)C(C)(C)[C@@](CC=C(C)C)(C(=O)C(C(=O)c4ccc(O)c(O)c4)=C2O[C@@H]1C=C(C)C)C3=O`, the inhibition result is “Active”.

Another assay has the same target. Briefly: Inhibition of STAT3 activity in human U251MG cells assessed as downregulation of STAT3 phosphorylation at Tyr705 residue at 5 uM up to 24 hrs by Western blot analysis. The assay is classed as cell-based.
Conditions: not given
A general note: Immunoblotting shows a protein as a band on a membrane.
Regarding `C=C(C)CC[C@H](C[C@]12C[C@H](CC=C(C)C)C(C)(C)[C@](CC=C(C)C)(C(=O)C(C(=O)c3ccc(O)c(O)c3)=C1O)C2=O)C(=C)C`, the inhibition entry is “Active”.

Another assay concerns NIH3T3. Briefly: Cytotoxicity against mouse NIH/3T3 cells assessed as reduction in cell viability after 72 hrs by CyQuant dye-based assay.
Conditions: not given
As to `C=C(C)CCC(CC12CC3C(C=C(C)C)C(C(=O)c4ccc(O)c(O)c4)(CC(CC=C(C)C)(C1=O)C3(C)C)C2=O)C(=C)C` (centres undefined), the IC50 result is on record as “Non-Toxic”.

Consider `C=C(C)CC[C@H]1C[C@]23C[C@H](CC=C(C)C)C(C)(C)[C@](CC=C(C)C)(C2=O)c2oc4cc(O)c(O)cc4c(=O)c2[C@]3(O)CC1=C`, for which the half-maximal inhibitory concentration (IC50) entry is listed as “Non-Toxic”.

In the case of `C=C(C)C(CC=C(C)C)C[C@@]12C[C@@H](CC=C(C)C)C(C)(C)[C@@](CC=C(C)C)(C(=O)C(C(=O)c3cccc(O)c3)=C1O)C2=O` (some centres undefined), the IC50 entry is “Non-Toxic”.

Regarding `CC(C)=CC[C@@H]1C[C@]23C[C@H](CC=C(C)C)C(C)(C)[C@](CC=C(C)C)(C(=O)C(C(=O)c4ccc(O)c(O)c4)=C2OC1(C)C)C3=O` [ISOXANTHOCHYMOL], the IC50 entry is “Non-Toxic”.

`CC(C)=CC[C@H]1C[C@]23C[C@@H]4CC=C(C)C[C@]4(C)C[C@@]2(O)c2c(oc4cc(O)c(O)cc4c2=O)[C@@](CC=C(C)C)(C3=O)C1(C)C`: the IC50 result is reported as “Non-Toxic”.

On to `CC(C)=CC[C@H]1C[C@@]23C[C@@H](CC=C(C)C)C(C)(C)[C@@](CC=C(C)C)(C(=O)C(C(=O)c4ccc(O)c(O)c4)=C2OC1(C)C)C3=O` [CAMBOGIN], for which the IC50 entry is listed as “Non-Toxic”.

`C=C(C)[C@H]1C[C@@]23C[C@@H](CC=C(C)C)C(C)(C)[C@@](CC=C(C)C)(C(=O)C(C(=O)c4ccc(O)c(O)c4)=C2O[C@@H]1C=C(C)C)C3=O`: the IC50 result is “Non-Toxic”.

The test system of a further assay is U-251. Briefly: Cytotoxicity against human U251MG cells assessed as reduction in cell viability after 72 hrs by CyQuant dye-based assay. The assay is classed as functional. Particulars: Homo sapiens, U-251, 72 h; read-out: IC50.
`C=C(C)CC[C@H]1C[C@]23C[C@H](CC=C(C)C)C(C)(C)[C@](CC=C(C)C)(C2=O)c2oc4cc(O)c(O)cc4c(=O)c2[C@]3(O)CC1=C`: the IC50 worked out at 3.5 µM.

Take `C=C(C)C(CC=C(C)C)C[C@@]12C[C@@H](CC=C(C)C)C(C)(C)[C@@](CC=C(C)C)(C(=O)C(C(=O)c3cccc(O)c3)=C1O)C2=O` (some centres undefined): the IC50 was 1.3 µM.

Turning to `CC(C)=CC[C@@H]1C[C@]23C[C@H](CC=C(C)C)C(C)(C)[C@](CC=C(C)C)(C(=O)C(C(=O)c4ccc(O)c(O)c4)=C2OC1(C)C)C3=O` [ISOXANTHOCHYMOL], the half-maximal inhibitory concentration (IC50) was determined as 6 µM.

Turning to `CC(C)=CC[C@H]1C[C@]23C[C@@H]4CC=C(C)C[C@]4(C)C[C@@]2(O)c2c(oc4cc(O)c(O)cc4c2=O)[C@@](CC=C(C)C)(C3=O)C1(C)C`, the IC50 came out at 1.8 µM.

As for `CC(C)=CC[C@H]1C[C@@]23C[C@@H](CC=C(C)C)C(C)(C)[C@@](CC=C(C)C)(C(=O)C(C(=O)c4ccc(O)c(O)c4)=C2OC1(C)C)C3=O` [CAMBOGIN], the IC50 came out at 2.8 µM.

For the molecule `C=C(C)[C@H]1C[C@@]23C[C@@H](CC=C(C)C)C(C)(C)[C@@](CC=C(C)C)(C(=O)C(C(=O)c4ccc(O)c(O)c4)=C2O[C@@H]1C=C(C)C)C3=O`, the IC50 worked out at 3.7 µM.

The assay is the same for the next values; noted with them: u-251.
On to `C=C(C)CCC(CC12CC3C(C=C(C)C)C(C(=O)c4ccc(O)c(O)c4)(CC(CC=C(C)C)(C1=O)C3(C)C)C2=O)C(=C)C` (centres undefined), for which the IC50 result is given as “Not Active”.

For another assay, the system named is MDA-MB-231. Briefly: Cytotoxicity against human MDA-MB-231 cells assessed as reduction in cell viability after 72 hrs by CyQuant dye-based assay. The assay is classed as functional.
Conditions: not given
For the molecule `C=C(C)CCC(CC12CC3C(C=C(C)C)C(C(=O)c4ccc(O)c(O)c4)(CC(CC=C(C)C)(C1=O)C3(C)C)C2=O)C(=C)C` (centres undefined), the IC50 result is reported as “Not Active”.

Turning to `C=C(C)CC[C@H]1C[C@]23C[C@H](CC=C(C)C)C(C)(C)[C@](CC=C(C)C)(C2=O)c2oc4cc(O)c(O)cc4c(=O)c2[C@]3(O)CC1=C`, the IC50 result is listed as “Not Active”.

Turning to `C=C(C)C(CC=C(C)C)C[C@@]12C[C@@H](CC=C(C)C)C(C)(C)[C@@](CC=C(C)C)(C(=O)C(C(=O)c3cccc(O)c3)=C1O)C2=O` (some centres undefined), the IC50 result was “Not Active”.

Take `CC(C)=CC[C@@H]1C[C@]23C[C@H](CC=C(C)C)C(C)(C)[C@](CC=C(C)C)(C(=O)C(C(=O)c4ccc(O)c(O)c4)=C2OC1(C)C)C3=O` [ISOXANTHOCHYMOL]: the IC50 entry is reported as “Not Active”.

As for `CC(C)=CC[C@H]1C[C@]23C[C@@H]4CC=C(C)C[C@]4(C)C[C@@]2(O)c2c(oc4cc(O)c(O)cc4c2=O)[C@@](CC=C(C)C)(C3=O)C1(C)C`, the IC50 result is given as “Not Active”.

With `CC(C)=CC[C@H]1C[C@@]23C[C@@H](CC=C(C)C)C(C)(C)[C@@](CC=C(C)C)(C(=O)C(C(=O)c4ccc(O)c(O)c4)=C2OC1(C)C)C3=O` [CAMBOGIN], the IC50 result is “Not Active”.

`C=C(C)[C@H]1C[C@@]23C[C@@H](CC=C(C)C)C(C)(C)[C@@](CC=C(C)C)(C(=O)C(C(=O)c4ccc(O)c(O)c4)=C2O[C@@H]1C=C(C)C)C3=O`: the 50% inhibitory concentration (IC50) result was “Not Active”.

A further assay has as its system U-251. Briefly: Antimigratory activity in human U251MG cells at 2.5 to 5.0 uM after 18 hrs by inverted fluorescence microscopic method-based wound-healing assay.
Conditions: not given
The assay is classed as functional, cell-based.
For the molecule `C=C(C)[C@H]1C[C@@]23C[C@@H](CC=C(C)C)C(C)(C)[C@@](CC=C(C)C)(C(=O)C(C(=O)c4ccc(O)c(O)c4)=C2O[C@@H]1C=C(C)C)C3=O`, the outcome was Active.
